Results as given in the NIST ThermoML archive (doi:10.1021/je800460a).
Numbers after ± are expanded uncertainties.

Experiment: wn = mass fraction of the nth substance listed
Details: 101 kPa, Liquid

NC(CO)(CO)CO [2-amino-2-(hydroxymethyl)-1,3-propanediol] + O
Details	mass density, w1 = 0.0217 [kg/m3]	mass density, w1 = 0.051 [kg/m3]	mass density, w1 = 0.103 [kg/m3]	mass density, w1 = 0.158 [kg/m3]	mass density, w1 = 0.217 [kg/m3]	viscosity, w1 = 0.0217 [mPa·s]	viscosity, w1 = 0.051 [mPa·s]	viscosity, w1 = 0.103 [mPa·s]	viscosity, w1 = 0.158 [mPa·s]	viscosity, w1 = 0.217 [mPa·s]
298 K	1001.3 ± 1	1009 ± 1	1021.6 ± 1.1	1033.6 ± 1.1	1046.5 ± 1.1	0.913 ± 0.028	0.995 ± 0.031	1.148 ± 0.036	1.353 ± 0.043	1.605 ± 0.051
303 K	999.6 ± 1.1	1007.4 ± 1.1	1019.2 ± 1.1	1031.8 ± 1.1	1044.2 ± 1.2	0.874 ± 0.028	0.94 ± 0.03	1.059 ± 0.034	1.223 ± 0.039	1.449 ± 0.046
313 K	994.9 ± 1.2	1002.8 ± 1.2	1014.6 ± 1.2	1026.8 ± 1.3	1038.9 ± 1.3	0.733 ± 0.024	0.799 ± 0.026	0.884 ± 0.029	1.008 ± 0.033	1.172 ± 0.038
323 K	988.1 ± 1.3	996 ± 1.4	1008.2 ± 1.4	1019.9 ± 1.4	1032.7 ± 1.4	0.6 ± 0.021	0.65 ± 0.022	0.711 ± 0.024	0.808 ± 0.027	0.93 ± 0.032
